The source of these data is patent publication US20150283095A1, “NANOPARTICLES WITH BIODEGRADABLE AND BIOCOMPATIBLE POLYMER PLGA, LOADED WITH THE DRUG FOR HUMAN USE PENTOXIFYLLINE” (UNIVERSIDAD DE SANTIAGO DE CHILE, priority 2012, published 2015).

One test has as its system monoarthritis. Description: Monoarthritis chronic pain model (complete Freund's adjuvant), paw pressure test. It is filed as in vivo, Sprague-Dawley rats. As to conditions: PTX administered for 10 days, effect up to 21 days. As to the method:
Sprague-Dawley rats weighing approximately 100 g were used. This model was described by Butler (Butler et al, 1992). He was inoculated into the right paw (tibio-tarsal fourth) of rats with 50 uL of complete Freund's adjuvant containing 300 ug Mycobacterium butiricum. This injection produces a localized arthritis syndrome and found to be stable between four and six post-inoculation, weeks During this period there is an establishment of neurogenic pain and hyperalgesia, and this pain is held for more than two months period. Control rats were injected with the vehicle only Mycobacterium butiricum.
All doses of nanoparticles or free drugs were administered by intrathecal (it) in a maximum volume of […], dissolved in artificial cerebrospinal fluid (LCA: 1.3 mm CaCl2, KCl 2.8 mm, 0.9 mm MgCl2, NaHCO3 20 mM, 2.5 mM Na 2 HPO 7H2O, 125 mM NaCl). The injection i.t. it involves administration of the drug into the subarachnoid space between lumbar vertebrae L5 and L6 (Mestre et al, 1994) using a Hamilton syringe with a needle 26Gx1/2”. The entrance to the subarachnoid space evidenced by a slight movement in the tail of the rat, due to the mechanical stimulation of the needle to penetrate the spinal cord meninges. […]

The subject of test [1] is primary cultures of activated microglia. The settings on record: LPS-activated microglia treated with propentofylline; cited from earlier work.

In the case of `CC(=O)CCCCn1c(=O)c2c(ncn2C)n(C)c1=O` [PTX, 3,7-dimethyl-1-(5-oxo-hexyl)xanthine], the “effect on threshold of pain, pressure test of the leg” value in the test with monoarthritis is recorded as “lowers the threshold of pain”.

Consider `CCCn1cnc2c1c(=O)n(CCCCC(C)=O)c(=O)n2C` [propentofylline, 3-methyl-1-(5-oxo-hexyl)-7-propylxanthine], for which the “production of tumor necrosis factor (TNF), IL-1β and radicals oxygen” value in test [1] was “inhibition”.
